Experimental data as given in patent US20190065668A1, “STRUCTURE OF […] IN COMPLEX WITH AN INHIBITOR AND USES THEREOF” (priority 2015, published 2019).
Structures can show the parent of a compound that is named as a salt. Where two headings read alike, the source gives them in different places.

Key:
[1] = test system: plasmepsin V cleavage of the PEXEL in PfEMP3-GFP; conditions: PfEMP3-GFP processing; from Sleebs, B. E. et al. 2014; cited from earlier work
P. falciparum parasites = experiment: P. falciparum growth assay, parasitaemia at 72 hr by flow cytometry
P. vivax plasmepsin V [2] = target: T1, P. vivax plasmepsin V (Plasmodium vivax, UniProt A5K302); experiment: Surface plasmon resonance (Biacore 4000) direct binding; conditions: SPR; for Kd: 25° C., 1:1 interaction model, read-out: affinity (KD) for P. vivax plasmepsin V; for kd (off-rate): P. vivax plasmepsin V
T1 construct: gp67 signal peptide + FLAG tag + SUMO domain + TEV protease cleavage site (N, cleaved yes); made in house; host or cells: High Five insect cells
Procedure: Surface plasmon resonance was performed using a Biacore 4000 (GE Healthcare). Plasmepsin V was immobilized on a Series S CM5 sensor chip using amine-coupling chemistry. The surfaces of flow cells were activated for 10 min with a 1:1 mixture of 0.1 M NHS (N-hydroxysuccinimide) and 0.1 M EDC (3-(N,N-dimethylamino)propyl-N-ethylcarbodiimide) at a flow rate of […]. […] Compounds were allowed to associate and dissociate for 250 s and 600 s, respectively. Data were collected at a rate of 10 Hz and fit to a 1:1 interaction model using the Biacore 4000 Evaluation Software Version 1.0.

[3] = target: T2, recombinant P. falciparum plasmepsin V (Plasmodium falciparum, UniProt Q8I6Z5); experiment: Fluorogenic PEXEL cleavage assay (KAHRP FRET peptide), inhibition of recombinant P. falciparum plasmepsin V; type: biochemical
T2 construct: FLAG tag + SUMO domain + TEV protease cleavage site (secreted via signal peptide) (N, cleaved yes); made in house; host or cells: sf21 insect cells
Procedure: (§1) PEXEL cleavage assays (20 μl total volume) consisted of 1 ng/well of P. vivax plasmepsin V or 1.5 ng/well of P. falciparum plasmepsin V in buffer (25 mM Tris.HCl, 25 mM MES, pH 6.4) with 5 μM FRET peptide substrate (DABCYL-[…]-E-EDANS (SEQ ID NO:7) or peptides with the sequence DABCYL-[…]-E-EDANS (SEQ ID NO:8) or DABCYL-[…]-E-EDANS (SEQ ID NO:9)) (Sleebs, B. E. et al. 2014a; see FIG. 9). Samples were incubated at 37° C. for 120 min and measured using an Envision plate (Perkin-Elmer) reader (Ex 340 nm/Em 490 nm).
Reactions comprised of a fluorescent peptide of nine amino acids containing the PEXEL sequence (RTLAQ) from KAHRP. The KAHRP PEXEL peptide substrate DABCYL-[…]-E-EDANS (SEQ ID NO:7) was obtained commercially and used at a final assay concentration of 7.5 μM.
The end-point for all assays was set within the linear range of activity (approximately 1 hr.).
Tween-20 was used at 0.005% final assay concentration. Final assay buffer concentration was as follows: 25 mM Tris HCl, 25 mM MES (pH 6.4). Final assay volume was 20 μL.
An 11-point 1/3 serial dilution of compounds was generated using DMSO as a diluent (final assay concentration of 1%).
Assay reaction was incubated for 60 min at 37° C. and read using a fluorescence plate reader (Ex 340 nm, Em 495 nm). […]

P. vivax plasmepsin V [4] = target: T1, P. vivax plasmepsin V; experiment: Fluorogenic PEXEL cleavage assay (KAHRP FRET peptide), inhibition of recombinant P. vivax plasmepsin V; type: biochemical; conditions: KAHRP fluorogenic substrate 7.5 μM, 60 min, 37° C., pH 6.4
[5] = target: T2, recombinant P. falciparum plasmepsin V; experiment: Kinetic characterisation of recombinant plasmepsin V (Michaelis-Menten / Lineweaver-Burk), P. falciparum enzyme; type: biochemical; conditions: fluorogenic PEXEL substrate from KAHRP
Procedure: (§2) The in vitro activity of recombinant P. falciparum and P. vivax plasmepsin V was assessed against a fluorogenic peptide of nine amino acids that contained the PEXEL sequence from knob-associated histidine-rich protein (“KAHRP”) (DABCYL-[…]-E-EDANS; SEQ ID NO: 7).
(§3) Values for Km were derived from both the inverse Michaelis-Menten and the Lineweaver-Burk plots. These values were of the same magnitude for each enzyme and are also similar to the Km derived from the activity of another recombinant form of P. falciparum plasmepsin V on a different PEXEL substrate (Xiao, H. et al. 2014).
as §1

P. vivax plasmepsin V [6] = target: T1, P. vivax plasmepsin V; experiment: Kinetic characterisation of recombinant plasmepsin V (Michaelis-Menten / Lineweaver-Burk), P. vivax enzyme; type: biochemical; conditions: fluorogenic PEXEL substrate from KAHRP
Procedure: as §2, §3, §1

[7] = test system: plasmepsin V cleavage of the PEXEL in PfEMP3-GFP; experiment: PfEMP3-GFP PEXEL processing in P. falciparum trophozoites (immunoblot / 35S radiolabelling and immunoprecipitation); type: cell-based, Plasmodium falciparum
Description: P. falciparum 3D7 expressing the PEXEL protein erythrocyte membrane protein 3 (PfEMP3) fused to green fluorescent protein (GFP) (PfEMP3-GFP) was generated previously (Boddey, J. A. et al, 2010) (see FIG. 2C).
Membranes were probed with mouse a-GFP (Roche; 1:1000), rabbit a-Aldolase (1:1000) or rabbit a-HSP70 (1:4000) antibodies followed by horseradish peroxidase-conjugated secondary antibodies (Silenius; 1:2000) and visualized using enhanced chemiluminescence (Amersham). To radiolabel P. falciparum proteins, magnet-purified trophozoites expressing PfEMP3-GFP were treated with 10 μM inhibitors for 3 hr. […] PfEMP3-GFP protein species were then immunoprecipitated from parasite lysates solubilized in 1% Triton X-100/PBS containing 1× complete protease inhibitors (Roche) using anti-GFP agarose (MBL) for 2 hours at 4° C. and proteins were resolved by SDS-PAGE, visualized by autoradiography and quantified using a GS-800 Calibrated Densitometer (Bio-Rad) (Sleebs, B. E. et al. 2014a).

[8] = test system: export of PfEMP3-GFP to P. falciparum-infected erythrocytes; experiment: Pulse chase of PfEMP3-GFP processing and export to infected erythrocytes (tetanolysin release); conditions: for export of PfEMP3-GFP to parasite-infected erythrocytes: 10 μM pre-treatment 3 hr
[9] = read-out: EC50, inhibition of growth of P. falciparum (3D7) parasites, 3D7, chloroquine-sensitive strain, 72 hr

T2 sequence (Q8I6Z5 80-528): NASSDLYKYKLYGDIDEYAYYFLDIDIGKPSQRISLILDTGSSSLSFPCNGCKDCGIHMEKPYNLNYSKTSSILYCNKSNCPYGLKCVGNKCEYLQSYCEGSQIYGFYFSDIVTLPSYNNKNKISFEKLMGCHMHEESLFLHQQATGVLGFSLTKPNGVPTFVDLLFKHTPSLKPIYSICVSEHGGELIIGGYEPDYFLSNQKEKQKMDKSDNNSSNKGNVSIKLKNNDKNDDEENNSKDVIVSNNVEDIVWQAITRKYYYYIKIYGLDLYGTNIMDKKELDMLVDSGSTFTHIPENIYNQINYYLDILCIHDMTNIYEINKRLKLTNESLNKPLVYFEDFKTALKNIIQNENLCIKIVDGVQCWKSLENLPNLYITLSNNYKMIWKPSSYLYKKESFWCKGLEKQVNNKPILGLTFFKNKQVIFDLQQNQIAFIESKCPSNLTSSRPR
T1 sequence (A5K302 33-476, looked up, natural form): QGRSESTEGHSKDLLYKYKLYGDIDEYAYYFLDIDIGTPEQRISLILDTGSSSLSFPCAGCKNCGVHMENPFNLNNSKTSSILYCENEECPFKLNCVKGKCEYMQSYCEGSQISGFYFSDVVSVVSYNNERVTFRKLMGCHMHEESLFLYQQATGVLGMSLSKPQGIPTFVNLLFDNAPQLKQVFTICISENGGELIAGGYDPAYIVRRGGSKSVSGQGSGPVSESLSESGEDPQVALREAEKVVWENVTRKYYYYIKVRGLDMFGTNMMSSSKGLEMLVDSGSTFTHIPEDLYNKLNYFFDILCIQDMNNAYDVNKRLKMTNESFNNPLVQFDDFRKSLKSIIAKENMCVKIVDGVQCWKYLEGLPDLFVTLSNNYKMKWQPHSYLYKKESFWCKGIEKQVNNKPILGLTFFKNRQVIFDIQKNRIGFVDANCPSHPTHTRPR

Compound	time required for optimal inhibition of plasmepsin V in parasites [1] [h]	EC50 (P. falciparum parasites; read-out: EC50, blocking P. falciparum growth, summary statement, strain not stated) [nM]	EC50 (P. falciparum parasites; [9]) [nM]	Kd (P. vivax plasmepsin V [2]) [nM]	kd (off-rate) (P. vivax plasmepsin V [2])	IC50 ([3]; KAHRP fluorogenic substrate 7.5 μM, 60 min, 37° C., pH 6.4, read-out: IC50 against recombinant P. falciparum plasmepsin V) [nM]	IC50 (P. vivax plasmepsin V [4]) [nM]	Km [5] [µM]	Km (P. vivax plasmepsin V [6]) [µM]	inhibition of plasmepsin V cleavage of PfEMP3-GFP ([7]; 10 μM, 3 hours, immunoblot)	time required for optimal inhibition of plasmepsin V in parasites ([7]; PfEMP3-GFP processing) [h]	degree of PEXEL processing inhibition compared to WEHI-916 ([7]; PfEMP3-GFP, immunoblot) [fold]	inhibition of PEXEL cleavage (accumulation of 35 kDa full-length PfEMP3-GFP) ([7]; parasites expressing PfEMP3-GFP, immunoblot)	EC50 (P. falciparum parasites; read-out: EC50, inhibition of growth of P. falciparum CS2, CS2, 72 hr) [nM]	EC50 (P. falciparum parasites; read-out: EC50, inhibition of growth of P. falciparum NF54, NF54, 72 hr) [nM]	EC50 (P. falciparum parasites; read-out: EC50, inhibition of growth of P. falciparum W2mef, W2mef (chloroquine-resistant), 72 hr) [nM]	increased potency against recombinant P. falciparum plasmepsin V compared to WEHI-916 ([3]; ratio of IC50 values) [fold]	reversibility of inhibition of PEXEL cleavage after removal of inhibitor ([8]; 10 μM 3 hr, then inhibitor-free medium 30 and 60 min)	export of PfEMP3-GFP to parasite-infected erythrocytes ([8]; chase 20, 40 and 60 min)	export of PfEMP3-GFP to parasite-infected erythrocytes ([8]; chase 120 min)
CC(C)C[C@H](NC(=O)[C@@H](NC(=O)[C@H](CCCNC(=N)N)NS(=O)(=O)Cc1ccccc1)C(C)C)[C@@H](O)CC(=O)NCCc1ccccc1 [WEHI-916, reference compound]	5	5000	5000	42	2.47 E-03 1/s	12.9	8.2													
DABCYL-RNKRTLAQKQ-E-EDANS [fluorogenic PEXEL substrate from KAHRP]								20.2	6											
CC(C)C[C@H](NC(=O)[C@@H](NC(=O)[C@H](CCON=C(N)N)NC(=O)OCc1ccccc1)C(C)C)[C@@H](O)CC(=O)NCCc1ccccc1 [WEHI-842, Cbz-Cav(NH2)—Val-Sta-NH(CH2)2Ph.TFA]			400	13.4	1.11 E-03 1/s					potently inhibited plasmepsin V cleavage of PfEMP3-GFP	3	10	efficiently inhibited PEXEL cleavage	830	470	640	15	reversible	dramatically reduced export	Efficient export of PfEMP3-GFP returned
